From patent publication US9890147B2 (BAYER PHARMA AKTIENGESELLSCHAFT, priority 2012, dated 2018) come the findings set out here.

The structures appear in SMILES notation.

The target in one experiment is T1, BRD4 (BD1) (Homo sapiens, UniProt O60885).
T1 construct: with relatively long constructs also being possible, preferably amino acids 44-168; made in house; host or cells: E. coli
Briefly: Binding assay BRD4/acetylated peptide H4 (TR-FRET protein-protein interaction assay). The gist of the method:
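Displacement of biotin-Ac-H4 peptide from His6-tagged BRD4(BD1), final usually 10 nM, read as Eu-streptavidin to anti-His-XL665 TR-FRET (665/620 nm). Compounds tested at 11 doses up to 20 μM in duplicate, pH 7.5 HEPES, 22 °C then 4 °C incubation; IC50 by 4-parameter regression.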

Another experiment relates to MOLM-13 cells. Description: Cell proliferation assay (alamarBlue), MOLM-13. The class given is cell-based. Particulars: Homo sapiens, 96 hours incubation, inhibition of cell proliferation. A digest of the protocol:
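IC50 = concentration giving 50% growth inhibition relative to buffer-treated cells, after subtracting baseline fluorescence taken before dosing. Compound applied at 1E-5 to 1E-8 M for 96 h at 37 °C in RPMI1640 with 10% FCS; alamarBlue signal at 530/590 nm.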

The test system of a further experiment is MV4-11 cells. Briefly: Cell proliferation assay (alamarBlue), MV4-11. It is filed as cell-based. The settings on record: Homo sapiens, 72 hours incubation, inhibition of cell proliferation. On the procedure: (§1) In accordance with the invention, the capability of the substances to inhibit cell proliferation was determined Cell viability was determined using the alamarBlue® reagent (Invitrogen) in a Victor X3 Multilabel Reader (Perkin Elmer). The excitation wavelength was 530 nm and the emission wavelenth […].
The MV4-11 cells (ATCC, CRL 9591) were sown at a concentration of 5000 cells/well in 100 μl growth medium (RPMI1640, 10% FCS) on 96-well microtitre plates.
(§2) After an overnight incubation at 37° C., the fluorescence values (CI values) were determined. The plates were then treated with various substance dilutions (1E-5 M, 3E-6 M, 1E-6M, 3E-7 M, 1E-7 M, 3E-8 M, 1E-8 M) and incubated at 37° C. for 72 (MV4-11-, LOX-IMVI cells), 96 (MOLM-13-, B16F10-, MDA-MB-431-, Caov-3 cells), 120 (MOLP-8-, KMS-12-PE cells) or 168 (LAPC-4 cells) hours. The fluorescence values (CO values) were then determined. For the data analysis, the CI values were subtracted from the CO values and the results were compared between cells treated with different dilutions of the substance or with buffer solution only. These were used to calculate the IC 50 values (substance concentration required for 50% inhibition of cell proliferation).

For another experiment, the system named is LOX-IMVI cells. Description: Cell proliferation assay (alamarBlue), LOX-IMVI. It is filed as cell-based. The settings on record: Homo sapiens, 72 hours incubation, inhibition of cell proliferation. Here is the method: as §1
The LOX-IMVI cells (NCI-60) were sown at a concentration of 1000 cells/well in 100 μl growth medium (RPMI1640, 10% FCS) on 96-well microtitre plates.
as §2

The next experiment deals with MOLP-8 cells. Briefly: Cell proliferation assay (alamarBlue), MOLP-8. The settings on record: Homo sapiens, 120 hours incubation, inhibition of cell proliferation. It is filed as cell-based. Here is the method:
as §1
The MOLP-8 cells (DSMZ, ACC 569) were sown at a concentration of 4000 cells/well in 100 μl growth medium (RPMI1640, 20% FCS) on 96-well microtitre plates.
as §2

In a further experiment the test system is KMS-12-PE cells. Description: Cell proliferation assay (alamarBlue), KMS-12-PE. The class given is cell-based. The settings on record: Homo sapiens, 120 hours incubation, inhibition of cell proliferation. Here is the method:
as §1
The KMS-12-PE cells (DSMZ, ACC 606) were sown at a concentration of 4000 cells/well in 100 μl growth medium (RPMI1640, 20% FCS) on 96-well microtitre plates.
as §2

In another experiment the test system is Caov-3 cells. Description: Cell proliferation assay (alamarBlue), Caov-3. It is filed as cell-based. The settings on record: Homo sapiens; inhibition of cell proliferation, Caov-3 (ovarian carcinoma), 96 hours. Here is the method:
as §1
The MDA-MB-231 cells (DSMZ, ACC 732) were sown at a concentration of 4000 cells/well in 100 μl growth medium (DMEM/Ham's F12 medium, 10% FCS) on 96-well microtitre plates. The Caov-3 cells (ATCC, HTB-75) were sown at a concentration of 2000 cells/well in 100 μl growth medium (MEM Earle's medium, 10% FCS) on 96-well microtitre plates.
as §2

For the compound `CNC(=O)N1N=C(c2ccc(-c3cn(C)nn3)cc2)c2cc(OC)c(OC)cc2CC1C` (racemic) [Example 45, (±)-7,8-dimethoxy-N,4-dimethyl-1-[4-(1-methyl-1H-1,2,3-triazol-4-yl)phenyl]-4,5-dihydro-3H-2,3-benzodiazepine-3-carboxamide], the concentration for half-maximal inhibition (IC50) on BRD4 (BD1) came to 40 nM; in the experiment with MOLM-13 cells, 230 nM; in the experiment on MV4-11 cells, 140 nM; in the experiment with LOX-IMVI cells, 350 nM; in the experiment with MOLP-8 cells, 130 nM; with KMS-12-PE cells, 130 nM. Moreover, the half-inhibitory concentration (IC50) in the experiment with Caov-3 cells is 240 nM.

`CNC(=O)N1N=C(c2ccc(-c3sc(C)nc3C)cc2)c2cc(OC)c(OC)cc2CC1C` (racemic) [Example 46, (±)-1-[4-(2,4-dimethylthiazol-5-yl)phenyl]-7,8-dimethoxy-N,4-dimethyl-4,5-dihydro-3H-2,3-benzodiazepine-3-carboxamide]: the IC50 on BRD4 (BD1) worked out at 30 nM; with MOLM-13 cells, 190 nM; in the experiment on MV4-11 cells it was 110 nM; with LOX-IMVI cells it was 370 nM; in the experiment on MOLP-8 cells, 160 nM; in the experiment on KMS-12-PE cells it was 120 nM. In the experiment on Caov-3 cells, this compound had a half-inhibitory concentration (IC50) of 280 nM.

For the compound `CNC(=O)N1N=C(c2ccc(-c3cccnc3C(F)(F)F)cc2)c2cc(OC)c(OC)cc2CC1C` (racemic) [Example 48, (±)-7,8-dimethoxy-N,4-dimethyl-1-{4-[2-(trifluoromethyl)pyridin-3-yl]phenyl}-4,5-dihydro-3H-2,3-benzodiazepine-3-carboxamide], the IC50 came out at 110 nM on BRD4 (BD1); 190 nM in the experiment on MOLM-13 cells; 220 nM with MV4-11 cells; 650 nM in the experiment with LOX-IMVI cells; 250 nM with MOLP-8 cells; 260 nM with KMS-12-PE cells. The same compound displayed a concentration for half-maximal inhibition (IC50) in the experiment with Caov-3 cells of 470 nM.

Turning to `CNC(=O)N1N=C(c2ccc(-c3c(C)nn(C)c3C)cc2)c2cc(OC)c(OC)cc2CC1C` (racemic) [Example 51, (±)-7,8-dimethoxy-N,4-dimethyl-1-[4-(1,3,5-trimethyl-1H-pyrazol-4-yl)phenyl]-4,5-dihydro-3H-2,3-benzodiazepine-3-carboxamide], the IC50 came out at 30 nM on BRD4 (BD1); 210 nM in the experiment with MOLM-13 cells; 120 nM with MV4-11 cells; 350 nM in the experiment with LOX-IMVI cells; 120 nM in the experiment with MOLP-8 cells; 90 nM with KMS-12-PE cells. This compound also had an IC50 in the experiment on Caov-3 cells of 280 nM.

On to `CNC(=O)N1N=C(c2ccc(-c3cnoc3)cc2)c2cc(OC)c(OC)cc2CC1C` (racemic) [Example 52, (±)-1-[4-(isoxazol-4-yl)phenyl]-7,8-dimethoxy-N-dimethyl-4,5-dihydro-3H-2,3-benzodiazepine-3-carboxamide], for which the IC50 on BRD4 (BD1) turned out to be 50 nM; in the experiment with MOLM-13 cells it was 240 nM; in the experiment with MV4-11 cells, 140 nM; with LOX-IMVI cells, 450 nM; with MOLP-8 cells, 150 nM; in the experiment with KMS-12-PE cells it was 130 nM. Further, in the experiment with Caov-3 cells, the IC50 was 350 nM.

Turning to `CNC(=O)N1N=C(c2ccc(-c3cccc(NS(C)(=O)=O)c3)cc2)c2cc(OC)c(OC)cc2CC1C` (racemic) [Example 71, (±)-7,8-dimethoxy-N,4-dimethyl-1-{3′-[(methylsulphonyl)amino]biphenyl-4-yl}-4,5-dihydro-3H-2,3-benzodiazepine-3-carboxamide], the IC50 at BRD4 (BD1) turned out to be 40 nM; in the experiment with MOLM-13 cells, 250 nM; in the experiment on MV4-11 cells, 50 nM; with LOX-IMVI cells, 150 nM; in the experiment with MOLP-8 cells, 90 nM; with KMS-12-PE cells, 80 nM. For the same compound, the concentration for half-maximal inhibition (IC50) in the experiment on Caov-3 cells was 150 nM.

`CNC(=O)N1N=C(c2ccc(-c3cccc(C(=O)N4CCCC4)c3)cc2)c2cc(OC)c(OC)cc2CC1C` (racemic) [Example 96, (±)-7,8-dimethoxy-N,4-dimethyl-1-[3′-(pyrrolidin-1-ylcarbonyl)biphenyl-4-yl]-4,5-dihydro-3H-2,3-benzodiazepine-3-carboxamide]: the IC50 at BRD4 (BD1) worked out at 40 nM; with MOLM-13 cells, 250 nM; with MV4-11 cells, 70 nM; with LOX-IMVI cells, 220 nM; in the experiment on MOLP-8 cells, 90 nM; in the experiment with KMS-12-PE cells, 70 nM. Half-maximal inhibition with Caov-3 cells (IC50) was put at 170 nM.

Regarding `CNC(=O)N1N=C(c2ccc(N3CCN(C)CC3)cc2)c2cc(OC)c(OC)cc2CC1C` (racemic) [Example 127, (±)-7,8-dimethoxy-N,4-dimethyl-1-[4-(4-methylpiperazin-1-yl)phenyl]-4,5-dihydro-3H-2,3-benzodiazepine-3-carboxamide], the IC50 was 80 nM at BRD4 (BD1); 180 nM in the experiment on MOLM-13 cells; 120 nM with MV4-11 cells; 250 nM in the experiment with LOX-IMVI cells; 90 nM in the experiment on MOLP-8 cells; 90 nM with KMS-12-PE cells. The compound further had an IC50 in the experiment with Caov-3 cells of 240 nM.

Consider `CNC(=O)N1N=C(c2ccc(N3CCC3)cc2)c2cc(OC)c(OC)cc2CC1C` (racemic) [Example 128, (±)-1-[4-(azetidin-1-yl)phenyl]-7,8-dimethoxy-N,4-dimethyl-4,5-dihydro-3H-2,3-benzodiazepine-3-carboxamide], for which the concentration for half-maximal inhibition (IC50) on BRD4 (BD1) stood at 30 nM; in the experiment with MOLM-13 cells, 230 nM; in the experiment with LOX-IMVI cells, 390 nM; in the experiment on MOLP-8 cells it was 100 nM; in the experiment with KMS-12-PE cells it was 100 nM; in the experiment on Caov-3 cells it was 320 nM.

With `CNC(=O)N1N=C(c2ccc(N3CC(F)C3)cc2)c2cc(OC)c(OC)cc2CC1C` (racemic) [Example 129, (±)-1-[4-(3-fluoroazetidin-1-yl)phenyl]-7,8-dimethoxy-N,4-dimethyl-4,5-dihydro-3H-2,3-benzodiazepine-3-carboxamide], the IC50 at BRD4 (BD1) amounted to 50 nM; with MOLM-13 cells, 220 nM; in the experiment on MV4-11 cells, 180 nM; in the experiment on LOX-IMVI cells, 580 nM; in the experiment with MOLP-8 cells, 150 nM; in the experiment on KMS-12-PE cells it was 120 nM. Moreover, in the experiment with Caov-3 cells, the IC50 is 420 nM.

As to `CNC(=O)N1N=C(c2ccc(N3CCNCC3)cc2)c2cc(OC)c(OC)cc2CC1C` (racemic) [Example 131, (±)-7,8-dimethoxy-N,4-dimethyl-1-[4-(piperazin-1-yl)phenyl]-4,5-dihydro-3H-2,3-benzodiazepine-3-carboxamide], the IC50 is 50 nM at BRD4 (BD1); 110 nM in the experiment on MOLM-13 cells; 40 nM in the experiment on MV4-11 cells; 70 nM in the experiment with LOX-IMVI cells; 30 nM with MOLP-8 cells; 30 nM with KMS-12-PE cells. The compound further yielded an IC50 in the experiment on Caov-3 cells of 50 nM.

On to `CNC(=O)N1N=C(c2ccc(N3CCN(C(C)=O)CC3)cc2)c2cc(OC)c(OC)cc2CC1C` (racemic) [Example 132, (±)-1-[4-(4-acetylpiperazin-1-yl)phenyl]-7,8-dimethoxy-N,4-dimethyl-4,5-dihydro-3H-2,3-benzodiazepine-3-carboxamide], for which the IC50 on BRD4 (BD1) is 30 nM; in the experiment with MOLM-13 cells it was 200 nM; with MV4-11 cells, 130 nM; in the experiment on LOX-IMVI cells, 420 nM; in the experiment with MOLP-8 cells, 120 nM; with KMS-12-PE cells, 110 nM. Half-maximal inhibition in the experiment with Caov-3 cells (IC50) required 320 nM.

Turning to `CNC(=O)N1N=C(c2ccc(-c3c(C)noc3C)cc2)c2cc(OCCCN3CCOCC3)ccc2CC1C` (racemic) [Example 169, (±)-1-[4-(3,5-Dimethylisoxazol-4-yl)phenyl]-N,4-dimethyl-8-[3-(morpholin-4-yl)propoxy]-4,5-dihydro-3H-2,3-benzodiazepine-3-carboxamide], the half-maximal inhibitory concentration (IC50) on BRD4 (BD1) worked out at 30 nM; in the experiment on MOLM-13 cells, 240 nM; with LOX-IMVI cells, 410 nM; in the experiment with MOLP-8 cells it was 120 nM; in the experiment on KMS-12-PE cells it was 120 nM; in the experiment on Caov-3 cells, 370 nM.
